Measurements from patent US12251370B2, “Small molecule inhibitors of the BfrB:Bfd interaction” (BOARD OF SUPERVISORS OF LOUISIANA STATE UNIVERSITY AND …, priority 2018, dated 2025).
Entries after “also recorded” stand apart in the source; their conditions may differ.

Legend:
[1] = test system: ΔbfrB P. aeruginosa cells; assay: Growth response of bfrB deletion mutant cells to analog; type: cell-based, Pseudomonas aeruginosa; settings: M63 + 4 μM Fe; 15 h post-inoculation; viable cells vs untreated control
Protocol: To this end, wild type and ΔbfrB cells were cultured in M63 media supplemented with 4 μM Fe, in the presence of different concentrations of analog. […] Since BfrB is not essential, it is likely that the cell can compensate for the absence of the iron storage protein. […] The sudden onset of toxicity observed in the second phase, which is not observed with the wild type cells, is probably related to off-target effects that expose a fitness vulnerability caused by the absence of BfrB. Consequently, it is possible to conclude that the dose-dependent growth defect elicited by 11 or 16 on wild type P. aeruginosa cells is largely a consequence of the interaction between the small molecule inhibitors and BfrB in the bacterial cell. This issue was investigated in additional detail (see below) by probing the phenotypic and biochemical response of wild type cells treated with the small molecule inhibitors.

P. aeruginosa = assay: Growth curves and IC50 determination in P. aeruginosa; type: cell-based, Pseudomonas aeruginosa (PAO1); settings: Pseudomonas aeruginosa; M63 media; growth % from OD600 at 13 h; three independent experiments
Protocol: Pre-cultures (5 mL LB media) were grown for 12 h at 37° C. and 220 rpm in 50 mL conical tubes (VWR International, PA) covered with an air permeable membrane. The cells were then centrifuged at 4,000 rpm for 10 min, the resultant cell pellets washed twice in M63 media and then diluted in M63 media to OD600=0.01. Stock solutions (100 mM) of analog in DMSO were prepared weekly and stored at 4° C. Prior to initiating experiments in 96 well plates, the analog stock solution was serially diluted to make 10 mM or 1 mM working solutions in DMSO. A small volume of the appropriate working solution was transferred to a glass vial, diluted with DMSO to 30 μL, and then diluted to a final volume of 1.5 mL with pre-culture cell suspension with an OD600=0.01. The resultant cell suspension (200 μL) was transferred to a clear-bottom polystyrene 96 well plate (VWR), and incubated at 35° C. and 205 cpm for 13 h in an Epoch 2 microplate spectrophotometer (Biotek Instruments, Inc., Vermont). The growth curve in the presence of Ciprofloxacin was obtained in the same plate. […] MIC determinations were carried out using standard broth microdilution methods in 48 well plates and modified M63 media. Cells were incubated at 35° C.

[2] = test system: iron mobilization from BfrB in P. aeruginosa; assay: Imaging of iron stored in BfrB and analysis of total iron levels; type: cell-based, Pseudomonas aeruginosa; settings: analog 125 μM, M63 + 4 μM Fe
Protocol: The resultant cell suspensions (5 mL) were mixed with a small volume of a 10 mM working solution of analog 16 in DMSO to give a 125 μM solution and 2% DMSO, or simply 2% DMSO (control). The conical tubes were covered with a sterile air permeable membrane and the cultures incubated at 35° C. and 120 rpm for 6, 9, 12, 15, 18, 21 and 24 h. Prior to separating the cells by centrifugation (4,000 rpm, 15 min), a 100 μL aliquot was withdrawn from each conical tube and serially diluted for plating and enumerating viable cells. The separated pellet was washed with 5 mL of PBS and frozen at −20° C. for subsequent analysis. The corresponding cell free supernatants were used for iron analysis in the spent media, as described below. […]
To determine the total iron levels of cells treated with analog 16 or DMSO only (control), 5 mL cultures were grown in M63 media supplemented with 4 μM iron, as described above, and analyzed at 12, 15, 21, 24, and 28 h. […] Cell pellets were washed twice with 10 mL of PBS and the total levels of cellular iron were measured using a published protocol.^18, 48 In brief, cell pellets were mixed with 500 μL of freshly prepared digestion reagent (1:1 v/v 1.2 N HCl and 4.5% w/v KMnO4 in water), thoroughly mixed by vortexing, and incubated at 65° C. for 4 h. […]

[3] = test system: P. aeruginosa clinical isolate MR60; assay: Effect of analog on ciprofloxacin potency, clinical isolate MR60; type: cell-based, Pseudomonas aeruginosa
Protocol: The combined treatment was carried out similarly, ensuring that the final concentration of DMSO was 2%.

Structure (SMILES): O=C1NC(=O)c2c(NCCCc3cccc(O)c3)cccc21 [Analog 16, 4-((3-(3-Hydroxyphenyl)propyl)amino)isoindoline-1,3-dione]
- growth response of ΔbfrB mutant cells [1]: biphasic growth response
- IC50 (P. aeruginosa): 121 µM
- iron mobilization from BfrB (native PAGE stained with Ferene S) [2]: significant inhibition of iron mobilization from BfrB; also recorded: much slower (inhibited) mobilization of iron from BfrB
- viable cells, fold fewer than untreated control ([2]; all time points): approximately 2.5 fold
- survival, fold lower relative to ciprofloxacin alone ([3]; analog 16 + ciprofloxacin): approximately 4 fold
- survival ([3]; analog 16 + ciprofloxacin 1 μg/mL): ca. 10%
- survival ([3]; analog 16 only, 125 μM): ca. 40%
